Data taken from patent publication US5312831A, “Urethanes and ureas that induce cytokine production” (American Cyanamid Company, priority 1993, dated 1994).
Entries after “also recorded” stand apart in the source; their conditions may differ.

Columns and labels:
IL-6 [1] = test: Serum IL-6 production in mice after single s.c. injection (7TD1 bioassay); assay type: in vivo, mouse; conditions: serum 4 h post injection
Description: (§1) Description of Biological Assays Interleukin 6(IL-6) assay for structure function analysis--Test compounds are dissolved in water and administered subcutaneously in 0.2 ml to deliver a dose of 0.1-10 mg/kg. The less soluble compounds are first dissolved in 100% ethanol and then brought to the appropriate concentration in water. Four hours post injection, the mice are bled and the serum is retrieved. The IL-6 dependent cell line 7TDl is used to assay serial dilutions of sera for IL-6 content. 7TDl cells (1×10^4) are placed in microtiter wells and incubated at 37° C. for 72 hours with standard recombinant mouse IL-6 or with dilutions of serum to be tested. Over the last 6 hours, the cells are pulsed with ^3 H-Tdr (μci). Cells are then harvested and the degree of proliferation determined by the uptake of ^3 H-Tdr as measured by liquid scintillation spectrometry. The concentration of IL-6 in serum is calculated from standard curves utilizing recombinant IL-6 from R&D Systems Inc. and are reported in units of IL-6 activity as defined by the manufacturer.

CSF = test: Serum colony stimulating factor (CSF) assay in mice; assay type: in vivo, mouse; conditions: serum 4 hours after injection
Description: Colony forming assays Granulocyte-Macrophage (CFU-GM)--Mice are treated with 150 mg/kg of 5-Fu and treatment with test compound begins 24 hrs. later. On consecutive days, mice are killed by cervical dislocation and the femurs removed under sterile conditions. Femurs are flushed with 1 ml of ice cold medium (Iscove's supplemented with 20% FCS, 1% penicillin-streptomycin, 1% glutamine and 5×10^-5 M 2-mercaptoethanol). Bone marrow cells (5×10^5) are then plated in 12×75 mm tissue culture plates in 3 ml of warm ararose (3%) in Iscove's medium with 100 Units/ml of recombinant mouse GM-CSF purchased from Genzyme (Boston, Mass.). Plates are incubated for 7 days at 37° C. in 5% CO2. After 7 days, colonies of 50 cells or greater are enumerated under a dissecting microscope.
Bone marrow cells are prepared as described above for the CFU-GM assay. The cells are then incubated in soft agar with an 0.3% final concentration of serum taken from mice 4 hours after injection with test compounds. After 7 days of incubation at 37° C., the number of colony forming (CFU) cells per 10^5 plated bone marrow cells is determined by counting colonies of more than 50 cells under a dissecting microscope. The data are reported as CFU/10^5 bone marrow cells.

GCSF [2] = test: Serum GCSF production in mice (NFS-60 bioassay); assay type: in vivo, mouse; conditions: for GCSF: 4 hours, 10 mice/group
Description: as §1
Granulocyte colony stimulating factor (GCSF) assay--A bioassay for GCSF is performed in an identical fashion to the IL-6 assay except that the GCSF dependent cell line NFS-60 is used in place of the IL-6 dependent 7TDI cell line.
Mice (10/group) are given a single subcutaneous injection of test compoun
and bled 4 hours later. GCSF levels in serum are determined by bioassay
using the GCSF dependent cell line NFS60.

neutrophils [3] = test: Neutrophil recovery in 5-FU treated mice; assay type: in vivo, mouse; conditions: for Neutrophils/cu. mm.: day 7 post 5FU 150 mg/kg, 10 mice/group, vehicle 157 ± 52
Description: (§2) Circulating Neutrophil Assay--Mice are treated with 5-FU (150 mg/kg) and beginning 24 hrs. later, treated daily with the test compound. Mice are bled daily by retroorbital puncture in heparinized capillary tubes. Circulating WBC counts are determined by Coulter counter. Blood smears are stained with Wright-Geimsa solution and the percentage circulating neutrophils determined by differential counting under a microscope.
(§3) 5-Fluorouracil (5-FU) Induced Neutropenia In Mice--Mice are treated ip with 150 mg/kg of the chemotherapy agent 5-FU which induces a severe loss of neutrophils in the peripheral blood 5-6 days later. Twenty-four hrs. after the dose, treatment with the test compounds is initiated. The effect of the test compounds on recovery of neutrophil progenitor cells in the bone marrow is determined by the CFU-GM assay. The recovery of circulating neutrophils is followed by differential staining of the peripheral blood.
*Data from 10 mice/group on day 7 post treatment with 150 mg/kg of 5FU.
Beginning 24 hrs. after 5FU dose, mice were treated daily with test
compound at concentrations indicated. Neutrophil count for normal mice (n
**Mice treated with 5FU and vehicle only.

IL-6 [4] = test: Serum IL-6 in 5-FU treated monkeys; assay type: in vivo, cynomolgous monkeys
Description: (§4) Groups of 3 cynomolgous monkeys are treated with 5FU at 125 mg/kg and
(§5) beginning 24 hours later treated with test compound s.c. at 0.05 mg/kg.
(§6) The data reported are from sera taken 4 hours after test compound

GCSF [5] = test: Serum GCSF in 5-FU treated monkeys; assay type: in vivo, cynomolgous monkeys
Description: as §4, §5, §6

neutrophils [6] = test: Oral dosing: neutrophil recovery in 5-FU treated mice; assay type: in vivo, mouse; conditions: for Neutrophils/cu. mm.: day 6 after 5-FU 150 mg/kg, 0 dose 178 ± 64
Description: as §2, §3
Groups of 5 mice are treated with 150 mg/kg of 5-FU. One day later, daily oral dosing with test compounds begins and continues for 10 days. […]

[7] = 0.05 mg/kg s.c., 5FU 125 mg/kg, sera 4 hours after treatment, 5-FU only 0

CCCCCCC(=O)N[C@@H](C(=O)O)[C@@H](C)OC(=O)N[C@@H](CCC[C@@H](N)C(=O)O)C(=O)N[C@H](C)C(=O)O [Example 28, [R-(R*,R*)]-N-(R)-6-carboxy-N^2-[[2-carboxy-1-methyl-2-[(1-oxoheptyl)amino]ethoxy]carbonyl]-L-lysyl]-D-Alanine]
IL-6 (IL-6 [1]; 0.1 mg/kg s.c.): 4802 ± 804 U/ml
IL-6 (IL-6 [1]; 1.0 mg/kg s.c.): 3844 ± 482 U/ml
IL-6 (IL-6 [1]; 10.0 mg/kg s.c.): 1718 U/ml
CSF production, CFU/100,000 Bone Marrow Cells (CSF; 0.1 mg/kg): 95 ± 16 CFU/100,000 Bone Marrow Cells
CSF production, CFU/100,000 Bone Marrow Cells (CSF; 1.0 mg/kg): 101 ± 8 CFU/100,000 Bone Marrow Cells
GCSF (GCSF [2]; 1.56 μg/kg single s.c.): 442 ± 52 pg/mL
GCSF (GCSF [2]; 3.12 μg/kg single s.c.): 470 ± 59 pg/mL
GCSF (GCSF [2]; 6.25 μg/kg single s.c.): 644 ± 267 pg/mL
GCSF (GCSF [2]; 12.50 μg/kg single s.c.): 1342 ± 289 pg/mL
GCSF (GCSF [2]; 25.00 μg/kg single s.c.): 3352 ± 907 pg/mL
GCSF (GCSF [2]; 50.00 μg/kg single s.c.): 1249 ± 138 pg/mL
GCSF induction in the serum of mice (in words) (GCSF [2]; injected mice): induce GCSF in the serum of injected mice
Neutrophils/cu. mm. (neutrophils [3]; 1.56 μg/kg daily): 722 ± 199 /cu. mm.
Neutrophils/cu. mm. (neutrophils [3]; 3.12 μg/kg daily): 424 ± 115 /cu. mm.
Neutrophils/cu. mm. (neutrophils [3]; 6.25 μg/kg daily): 758 ± 249 /cu. mm.
Neutrophils/cu. mm. (neutrophils [3]; 12.50 μg/kg daily): 1314 ± 267 /cu. mm.
Neutrophils/cu. mm. (neutrophils [3]; 25.00 μg/kg daily): 1804 ± 408 /cu. mm.
Neutrophils/cu. mm. (neutrophils [3]; 50.00 μg/kg daily): 1716 ± 284 /cu. mm.
Neutrophils/cu. mm. (neutrophils [3]; 100.00 μg/kg daily): 2613 ± 364 /cu. mm.
neutrophil recovery in 5-FU treated mice (in words) (neutrophils [3]; mouse, in vivo): enhances the recovery of peripheral blood neutrophils; also recorded: induce neutrophil recovery in 5-FU treated mice
Serum IL-6 (IL-6 [4]; [7]): 2579 ± 318 Units/ml
IL-6 production in the serum of 5-FU treated primates (in words) (IL-6 [4]; monkey, in vivo): induces IL-6 and GCSF production
Serum GCSF (GCSF [5]; [7]): 3962 ± 2178 pg/mL
GCSF production in the serum of 5-FU treated primates (in words) (GCSF [5]; monkey, in vivo): induces IL-6 and GCSF production
Neutrophils/cu. mm. (neutrophils [6]; 0.1 mg/kg daily oral): 81 ± 35 /cu. mm
Neutrophils/cu. mm. (neutrophils [6]; 1 mg/kg daily oral): 765 ± 209 /cu. mm
Neutrophils/cu. mm. (neutrophils [6]; 10 mg/kg daily oral): 1391 ± 350 /cu. mm
neutrophil recovery in 5-FU treated mice when given orally (in words) (neutrophils [6]; oral): active in accelerating neutrophil recovery
